Experimental data reported in patent US10118928B2, “Treatment of H. pylori infections using MTAN inhibitors” (ALBERT EINSTEIN COLLEGE OF MEDICINE, INC., priority 2014, dated 2018).

What follows are compounds tested on H. pylori (assay: MIC90 against H. pylori, growth on tryptic soy agar with 5% horse blood). Details: Table 1; 72 h, microaerophilic, 37° C.
Assay type: cell-based
Parameters: unit not given here
Experimental: Bacterial Growth. H. pylori were grown for 72 hours under microaerophilic condition (5% O2, 10% CO2 and 85% N2) at 37° C. on tryptic soy agar with 5% horse blood. To determine the MIC values, the test substance was added to the gel solution right before pouring. To compare the zones of inhibition, specific antibiotics were added to the center of disc after spreading H. pylori, and then H. pylori was allowed to grow for 72 hours under microaerophilic condition at 37° C.

Structure (SMILES) | MIC90 against H. pylori
CCCCSC[C@@H](CO)NCc1c[nH]c2c(N)ncnc12 | 16
CCCC[C@@H](CO)NCc1c[nH]c2c(N)ncnc12 | 16
CCC[C@@H](CO)NCc1c[nH]c2c(N)ncnc12 | 40
Nc1ncnc2c(CN[C@H](CO)CSc3ccc(Cl)cc3)c[nH]c12 | >80
Nc1ncnc2c(CN[C@H](CO)c3ccccc3)c[nH]c12 | >80
CSC[C@H](O)[C@H](CO)NCc1c[nH]c2c(N)ncnc12 | >80
Nc1ncnc2c(CN[C@H](CO)Cc3c[nH]cn3)c[nH]c12 | >80
CCCCCCCSC[C@@H](CO)NCc1c[nH]c2c(N)ncnc12 | 80
CC(C)[C@@H](CO)NCc1c[nH]c2c(N)ncnc12 | >80
CSC[C@@H](CO)NCc1c[nH]c2c(N)ncnc12 | >80
CSC[C@H](CO)NCc1c[nH]c2c(N)ncnc12 | >80
CC[C@H](C)[C@@H](CO)NCc1c[nH]c2c(N)ncnc12 | >80

Now from value to compound:

MIC90 against H. pylori | Structure (SMILES)
8 | Nc1ncnc2c(CN[C@H](CO)CSc3cnccn3)c[nH]c12
8 | CCCCC[C@@H](CO)NCc1c[nH]c2c(N)ncnc12
8 | CCCCCC[C@@H](CO)NCc1c[nH]c2c(N)ncnc12
80 | CCCCCCCCC[C@@H](CO)NCc1c[nH]c2c(N)ncnc12
>80 | Nc1ncnc2c(CN[C@H](CO)CSCc3ccccc3)c[nH]c12
>80 | CCCC[C@H](CO)NCc1c[nH]c2c(N)ncnc12
>80 | CSC[C@@H](O)[C@@H](CO)NCc1c[nH]c2c(N)ncnc12
>80 | C[C@@H](CO)NCc1c[nH]c2c(N)ncnc12
>80 | CC[C@@H](CO)NCc1c[nH]c2c(N)ncnc12
>80 | CC(C)C[C@@H](CO)NCc1c[nH]c2c(N)ncnc12

Same assay, conditions: Table 2; 72 h, microaerophilic, 37° C.

MIC90 against H. pylori | Structure (SMILES)
>80 | CCCCCCCCNCc1c[nH]c2c(N)ncnc12
>80 | Nc1ncnc2c(CNCCO)c[nH]c12
